Measured values published in patent publication US8759522B2, “Inhibitors of protein tyrosine kinase activity” (Methylgene Inc., priority 2008, dated 2014).

test system: CNV progression; test: In vivo choroidal neovascularization (CNV) model; set-up: species or system Brown-Norway rats; conditions: 240 h; rat laser-induced CNV, 30 nmol/eye injection on Day 3, CNV area on Day 10 vs vehicle-treated group
Description: In vivo Choroidal Neovascularization (CNV) Model
This test measures the capacity of compounds to inhibit CNV progression. CNV is the main cause of severe vision loss in patients suffering from age-related macular degeneration (AMD).
Male Brown-Norway rats (Japan Clea Co., Ltd.) were used in these studies.
Rats were anesthetized by intraperitoneal injection of pentobarbital, and the right pupil was dilated with 0.5% tropicamide and 0.5% phenylephrine hydrochloride. The right eye received 6 laser burns between retinal vessels using a slit lamp delivery system of Green laser Photocoagulator (Nidex Inc., Japan), and microscope slide glass with Healon™ (AMO Inc) used as a contact lens. The laser power was 100 or 200 mW for 0.1 second and spot diameter was 100 μm. At the time of laser burn, bubble production was observed, which is an indication of rupture of Bruch's membrane which is important for CNV generation.
Rats were divided into the groups based on their body weight using SAS software (SAS institute Japan, R8.1) after laser irradiation (Day 0). After animals were anesthetized, and the right pupil dilated (as above mentioned), the right eye of the animal received the compound or vehicle by an injection (10 μL/eye) at doses of 30 nmol/eye on Day 3. The compounds were dissolved or suspended in CBS, PBS, or other adequate vehicles before injection.
On Day 10, the animals were anesthetized with ether, and high molecular weight fluorescein isothiocyanate (FITC)-dextran (SIGMA, 2×10^6 MW) was injected via a tail vein (20 mg/rat). About 30 min after FITC-dextran injection, animals were euthanized by ether or carbon dioxide, and the eyes were removed and fixed with 10% formaline neutral buffer solution. After over 1 hour of fixation, RPE-choroid-sclera flat mounts were obtained by removing cornea, lens and retina from the eyeballs. The flat mounts were mounted in 50% glycerol on a microscope slide, and the portion burned by laser was photographed using a fluorescence microscope (Nikon Corporation, excitation filter: 465-495 nm, absorption filter: 515-555 nm). The CNV area was obtained by measurement of hyper-fluorescence area observed on the photograph using Scion image.
The average CNV area of 6 burns was used as an individual value of CNV area, and the average CNV area of compound treated group was compared with that of the vehicle-treated group.

Row | Compound | inhibition in vivo at 30 nmol/eye [%]
1 | COCCNCc1cnc(-c2cc3nccc(Oc4ccc(NC(=O)NC(C)C)cc4F)c3s2)n1C [Compound 315, 1-(3-Fluoro-4-(2-(5-((2-methoxyethylamino)methyl)-1-methyl-1H-imidazol-2-yl)thieno[3,2-b]pyridin-7-yloxy)phenyl)-3-isopropylurea] | ≥ 60
2 | COCCOCCOCCOCCNCc1ccc(-c2cc3nccc(Oc4ccc(NC(=O)NC5CC5)cc4F)c3s2)nc1 [Compound 323, 1-(4-(2-(5-5,8,11,14-Tetraoxa-2-azapentadecylpyridin-2-yl)thieno[3,2-b]pyridin-7-yloxy)-3-fluorophenyl)-3-cyclopropylurea] | ≥ 60
3 | N[C@@H](CCCCNCc1ccc(-c2cc3nccc(Oc4ccc(NC(=O)NC5CC5)cc4F)c3s2)nc1)C(=O)O [Compound 324, (S)-2-amino-6-((6-(7-(4-(3-cyclopropylureido)-2-fluorophenoxy)thieno[3,2-b]pyridin-2-yl)pyridin-3-yl)methylamino)hexanoic acid] | 40 to 60
4 | COCCOCCNCc1ccc(-c2cc3nccc(Oc4ccc(NC(=O)NC5CC5)cc4F)c3s2)nc1 [Compound 331, 1-Cyclopropyl-3-(3-fluoro-4-(2-(5-((2-(2-methoxyethoxy)ethylamino)methyl)pyridin-2-yl)thieno[3,2-b]pyridin-7-yloxy)phenyl)urea] | 40 to 60
5 | O=C(Nc1ccc(Oc2ccnc3cc(-c4ccc(CN5CCCC5=O)cn4)sc23)c(F)c1)NC1CC1 [Compound 333, 1-cyclopropyl-3-(3-fluoro-4-(2-(5-((2-oxopyrrolidin-1-yl)methyl)pyridin-2-yl)thieno[3,2-b]pyridin-7-yloxy)phenyl)urea] | ≥ 60
6 | COC[C@H](C)N(Cc1ccc(-c2cc3nccc(Oc4ccc(NC(=O)NC5CC5)cc4F)c3s2)nc1)C(C)=O [Compound 335, (S)—N-((6-(7-(4-(3-cyclopropylureido)-2-fluorophenoxy)thieno[3,2-b]pyridin-2-yl)pyridin-3-yl)methyl)-N-(1-methoxypropan-2-yl)acetamide] | 40 to 60
7 | COCCN(Cc1ccc(-c2cc3nccc(Oc4ccc(NC(=O)NC5CC5)cc4F)c3s2)nc1)C(=O)[C@H](N)C(C)C [Compound 341, (R)-2-amino-N-((6-(7-(4-(3-cyclopropylureido)-2-fluorophenoxy)thieno[3,2-b]pyridin-2-yl)pyridin-3-yl)methyl)-N-(2-methoxyethyl)-3-methylbutanamide] | ≥ 60
8 | COCCN(Cc1cnc(-c2cc3nccc(Oc4ccc(NC(=O)NC5CC5)cc4F)c3s2)n1C)S(C)(=O)=O [Compound 349, N-((2-(7-(4-(3-Cyclopropylureido)-2-fluorophenoxy)thieno[3,2-b]pyridin-2-yl)-1-methyl-1H-imidazol-5-yl)methyl)-N-(2-methoxyethyl)methanesulfonamide] | ≥ 60
9 | COCCNCc1cnc(-c2cc3nccc(Oc4ccc(NC(=O)Nc5ccc(F)cc5F)cc4F)c3s2)n1C [Compound 351, 1-(2,4-difluorophenyl)-3-(3-fluoro-4-(2-(5-((2-methoxyethylamino)methyl)-1-methyl-1H-imidazol-2-yl)thieno[3,2-b]pyridin-7-yloxy)phenyl)urea] | 40 to 60
10 | COCCNCc1cccc(-c2cc3nccc(Oc4ccc(NC(=O)Nc5cccc(P(C)(C)=O)c5)cc4F)c3s2)n1 [Compound 387, 1-(3-(dimethylphosphoryl)phenyl)-3-(3-fluoro-4-(2-(6-((2-methoxyethylamino)methyl)pyridin-2-yl)thieno[3,2-b]pyridin-7-yloxy)phenyl)urea] | 40 to 60
11 | COCCOCCOCCNCc1ccc(-c2cc3nccc(Oc4ccc(NC(=O)Nc5cccc(P(C)(C)=O)c5)cc4F)c3s2)nc1 [Compound 390, 1-(4-(2-(5-5,8,11-trioxa-2-azadodecylpyridin-2-yl)thieno[3,2-b]pyridin-7-yloxy)-3-fluorophenyl)-3-(3-(dimethylphosphoryl)phenyl)urea] | 40 to 60
12 | COCCOCCNCc1ccc(-c2cc3nccc(Oc4ccc(NC(=O)Nc5cc(C)on5)cc4F)c3s2)nc1 [Compound 392, 1-(3-fluoro-4-(2-(5-((2-(2-methoxyethoxy)ethylamino)methyl)pyridin-2-yl)thieno[3,2-b]pyridin-7-yloxy)phenyl)-3-(5-methylisoxazol-3-yl)urea] | 40 to 60
13 | COCCNCc1ccc(-c2cc3nccc(Oc4ccc(NC(=O)Nc5nc(C)cs5)cc4F)c3s2)nc1 [Compound 397, 1-(3-fluoro-4-(2-(5-((2-methoxyethylamino)methyl)pyridin-2-yl)thieno[3,2-b]pyridin-7-yloxy)phenyl)-3-(4-methylthiazol-2-yl)urea] | 40 to 60
14 | COCCNCc1ccc(-c2cc3nccc(Oc4ccc(NC(=O)Nc5cccc(S(N)(=O)=O)c5)cc4F)c3s2)nc1 [Compound 403, 3-(3-(3-fluoro-4-(2-(5-((2-methoxyethylamino)methyl)pyridin-2-yl)thieno[3,2-b]pyridin-7-yloxy)phenyl)ureido)benzenesulfonamide] | ≥ 60
15 | COCCN(Cc1ccc(-c2cc3nccc(Oc4ccc(NC(=O)Nc5cccc(S(C)(=O)=O)c5)cc4F)c3s2)nc1)C(C)=O [Compound 413, N-((6-(7-(2-fluoro-4-(3-(3-(methylsulfonyl)phenyl)ureido)phenoxy)thieno[3,2-b]pyridin-2-yl)pyridin-3-yl)methyl)-N-(2-methoxyethyl)acetamide] | ≥ 60
16 | COCCNCc1ccc(-c2cc3nccc(Oc4ccc(NC(=O)NC5CCC5)cc4F)c3s2)nc1 [Compound 414, 1-cyclobutyl-3-(3-fluoro-4-(2-(5-((2-methoxyethylamino)methyl)pyridin-2-yl)thieno[3,2-b]pyridin-7-yloxy)phenyl)urea] | 40 to 60
17 | COCCN(Cc1ccc(-c2cc3nccc(Oc4ccc(NC(=O)Nc5cccc(C(N)=O)c5)cc4F)c3s2)nc1)C(=O)OC [Compound 419, methyl (6-(7-(4-(3-(3-carbamoylphenyl)ureido)-2-fluorophenoxy)thieno[3,2-b]pyridin-2-yl)pyridin-3-yl)methyl(2-methoxyethyl)carbamate] | 40 to 60

same assay, conditions: rat laser-induced CNV, 30 nmol/eye injection on Day 3, CNV area on Day 10 vs vehicle-treated group

Row | Compound | Inhibition of CNV progression
18 | COCCNCc1cnc(-c2cc3nccc(Oc4ccc(NC(=O)NC5CC5)cc4F)c3s2)n1C [Compound 348] | B (≧40% to <60% inhibition)
